Where two headings read alike, the source gives them in different places.
Experiments:
[1] = system: PGI2-like substance in vessel walls; assay: Influence on production of PGI2-like substance in vessel walls (ADP aggregation with carotid artery ring); type: in vivo, rat (male Wistar-ST strain); conditions: 1 hour, 10 μM ADP
Procedure: Male Wistar-ST strain rats with an average weight of about 250 g were used as experimental animals. After fasted for 18 hours, 6.3 ml of blood sample were obtained from corotid artery and immediately thereafter 0.7 ml of an anticoagulant (3.8% sodium citrate) was added and the sample was centrifuged at 200×g over 15 minutes to take platelet-rich plasma (PRP). The same procedures as above were carried out, using 5 to 6 rats, whereby 5-6 ml as normal PRP were stored and employed.
Reference aggregation values were determined by pouring 1 ml each of stored PRP into plastic test tubes, incubating them at 22° C. for 10 minutes and then determining aggregation rate. As an aggregation inducing agent, one employed 10 μM ADP (available from Sigma Co., Inc.)
A suspension of the compound of this invention or aspirin in a 1% aqueous solution of tragacanth was orally given to animals. After 1 hour, 5 mg of carotid artery were cut out in a ring shape and placed into a plastic test tube together with 1 ml of stored PRP. After incubated at 22° C. for 10 minutes, aggregation rate was determined.
Also, non-medicated groups were similarly treated and aggregation rate was determined.
Determination of blood platelet aggregation rate was made by means of an aggregometer.

[2] = system: carotid artery; assay: Action on blood flow volume in carotid artery; type: in vivo, rabbit (male New Zealand White)
Procedure: (§1) Male New Zealand White rabbits (body weight of 2.8 Kg to 3.5 Kg) were used and anesthetized with pentobarbital sodium. Blood flow volumes in the carotid artery and femoral artery were measured and recorded via a non-blood observing type of a probe for measuring blood flow volume. Also, blood pressure in femoral artery was simultaneously measured and recorded with measurement of blood flow.
(§2) The compound of this invention was dissolved in an aqueous solution containing 1% tartaric acid and 1% dimethylacetamide, while papaverine hydrochloride dissolved in 0.9% physiological saline. These test compounds were intravenously given through a residual polyethylene tube within femoral vein.

[3] = system: femoral artery; assay: Action on blood flow volume in femoral artery; type: in vivo, rabbit (male New Zealand White)
Procedure: as §1, §2

[4] = system: femoral artery; assay: Action on blood pressure in femoral artery; type: in vivo, rabbit (male New Zealand White)
Procedure: as §1, §2

[5] = system: blood platelets; assay: Activity to inhibit the aggregation of blood platelets (collagen, ex vivo after oral administration); type: in vivo, rat (male Wistar-ST strain); conditions: Rattus norvegicus, Platelet
Procedure: Male Wistar-ST strain rats of an average body weight of 250 g were used, a group consisting of 8 animals. The test compound indicated in the following Table 1 was orally administered to rats in the form of a suspension in a 1% tragacanth aqueous solution at 4 ml/Kg (the test compound 10 mg/Kg).
One hour after the administration, blood samples were obtained from the carotid artery by means of a cannule. […] Tubes were turned upside-down and then subjected to centrifugation at 200×g over 15 minutes to assign the supernatant as a platelet-rich plasma (PRP). The residue was further centrifuged at […] over 15 minutes to assign the supernatant as a platelet-poor plasma (PPP). These supernatants were applied for determining the ability to aggregate blood platelets. […] As an aggregation inducing agent, collagen (availale from Hormon-chemie A.G.) was used at a concentration of 7 to 10 μg/ml.
Inhibitory rate to aggregate blood platelets was calculated according to the following equation: [formula] A: […] in the group to which the 1% tragacanth solution alone was given (Control)
B: Aggregation rate in the group to which the tragacanth solution of the test compound was given.

[6] = system: mice; assay: Anti-thrombotic activity: arachidonic acid-induced mortality in mice; type: in vivo, mouse (male ICR-JCL strain); conditions: for Survival time of dead mice: arachidonic acid 100 mg/Kg i.v.; for Mortality: arachidonic acid 100 mg/Kg i.v. after 1 hour
Procedure: Male ICR-JCL strain mice with an average body weight of about 25 g and male New Zealand White rabbits with an average body weight of about 3 Kg were used.
Where mice were used as experimental animals, a suspension of the test compound indicated in Table 3 in a 1% tragacanth aqueous solution was orally administered to animals at 20 ml/Kg. One hour after the administration, an arachidonic acid (PL-biochemical Co., Inc.) solution dissolved in a 0.1M sodium carbonate aqueous solution was intravenously given at 100 mg/Kg. Evaluation of activity was effected with the time from the administration of arachidonic acid up to the death of animals as well as mortality.

Compound: CCC(CC)Nc1nnc(-c2ccccc2)c2ccccc12 [Compound 2, 1-(1-ethylpropylamino)-4-phenylphthalazine]
- Aggregation rate with ADP when carotid artery ring added ([1]; 3 mg/Kg oral): 0.0%
- Aggregation rate with ADP when carotid artery ring added ([1]; 10 mg/Kg oral): 7.7%
- Aggregation rate with ADP when carotid artery ring added ([1]; 30 mg/Kg oral): 1.3%
- Aggregation rate with ADP when carotid artery ring added ([1]; 100 mg/Kg oral): 23.3%
- Blood flow volume in carotid artery, A: Before administration ([2]; 0.01 mg/Kg i.v.): 15.6 mL/min
- Blood flow volume in carotid artery, B: After administration ([2]; 0.01 mg/Kg i.v.): 19.4 mL/min
- Blood flow volume in carotid artery, C: Increase degree ([2]; 0.01 mg/Kg i.v.): 3.9 mL/min
- Blood flow volume in carotid artery, D: Increase rate ([2]; 0.01 mg/Kg i.v.): 24.9%
- Blood flow volume in carotid artery, A: Before administration ([2]; 0.05 mg/Kg i.v.): 13.9 mL/min
- Blood flow volume in carotid artery, B: After administration ([2]; 0.05 mg/Kg i.v.): 17.7 mL/min
- Blood flow volume in carotid artery, C: Increase degree ([2]; 0.05 mg/Kg i.v.): 3.8 mL/min
- Blood flow volume in carotid artery, D: Increase rate ([2]; 0.05 mg/Kg i.v.): 24.8%
- Blood flow volume in carotid artery, A: Before administration ([2]; 0.1 mg/Kg i.v.): 14.5 mL/min
- Blood flow volume in carotid artery, B: After administration ([2]; 0.1 mg/Kg i.v.): 22.4 mL/min
- Blood flow volume in carotid artery, C: Increase degree ([2]; 0.1 mg/Kg i.v.): 7.9 mL/min
- Blood flow volume in carotid artery, D: Increase rate ([2]; 0.1 mg/Kg i.v.): 54.3%
- Blood flow volume in carotid artery, A: Before administration ([2]; 0.5 mg/Kg i.v.): 16.7 mL/min
- Blood flow volume in carotid artery, B: After administration ([2]; 0.5 mg/Kg i.v.): 32.1 mL/min
- Blood flow volume in carotid artery, C: Increase degree ([2]; 0.5 mg/Kg i.v.): 15.4 mL/min
- Blood flow volume in carotid artery, D: Increase rate ([2]; 0.5 mg/Kg i.v.): 96.0%
- Blood flow volume in femoral artery, A: Before administration ([3]; 0.01 mg/Kg i.v.): 20.9 mL/min
- Blood flow volume in femoral artery, B: After administration ([3]; 0.01 mg/Kg i.v.): 26.5 mL/min
- Blood flow volume in femoral artery, C: Increase degree ([3]; 0.01 mg/kg i.v.): 5.6 mL/min
- Blood flow volume in femoral artery, D: Increase rate ([3]; 0.01 mg/kg i.v.): 28.5%
- Blood flow volume in femoral artery, A: Before administration ([3]; 0.05 mg/Kg i.v.): 18.8 mL/min
- Blood flow volume in femoral artery, B: After administration ([3]; 0.05 mg/Kg i.v.): 20.3 mL/min
- Blood flow volume in femoral artery, C: Increase degree ([3]; 0.05 mg/kg i.v.): 3.3 mL/min
- Blood flow volume in femoral artery, D: Increase rate ([3]; 0.05 mg/kg i.v.): 13.4%
- Blood flow volume in femoral artery, A: Before administration ([3]; 0.1 mg/Kg i.v.): 15.9 mL/min
- Blood flow volume in femoral artery, B: After administration ([3]; 0.1 mg/Kg i.v.): 12.5 mL/min
- Blood flow volume in femoral artery, C: Increase degree ([3]; 0.1 mg/kg i.v.): 3.4 mL/min
- Blood flow volume in femoral artery, D: Increase rate ([3]; 0.1 mg/kg i.v.): 23.4%
- Blood flow volume in femoral artery, A: Before administration ([3]; 0.5 mg/Kg i.v.): 19.5 mL/min
- Blood flow volume in femoral artery, B: After administration ([3]; 0.5 mg/Kg i.v.): 13.8 mL/min
- Blood flow volume in femoral artery, C: Increase degree ([3]; 0.5 mg/kg i.v.): 5.7 mL/min
- Blood flow volume in femoral artery, D: Increase rate ([3]; 0.5 mg/kg i.v.): 36.7%
- Blood pressure in femoral artery, A: Before administration ([4]; 0.01 mg/kg i.v.): 93.8 mmHg
- Blood pressure in femoral artery, B: After administration ([4]; 0.01 mg/kg i.v.): 91.3 mmHg
- Blood pressure in femoral artery, E: Lowering degree ([4]; 0.01 mg/kg i.v.): 2.5 mmHg
- Blood pressure in femoral artery, F: Lowering rate ([4]; 0.01 mg/kg i.v.): 2.7%
- Blood pressure in femoral artery, A: Before administration ([4]; 0.05 mg/kg i.v.): 90.8 mmHg
- Blood pressure in femoral artery, B: After administration ([4]; 0.05 mg/kg i.v.): 83.7 mmHg
- Blood pressure in femoral artery, E: Lowering degree ([4]; 0.05 mg/kg i.v.): 7.1 mmHg
- Blood pressure in femoral artery, F: Lowering rate ([4]; 0.05 mg/kg i.v.): 8.07%
- Blood pressure in femoral artery, A: Before administration ([4]; 0.1 mg/kg i.v.): 88.8 mmHg
- Blood pressure in femoral artery, B: After administration ([4]; 0.1 mg/kg i.v.): 78.1 mmHg
- Blood pressure in femoral artery, E: Lowering degree ([4]; 0.1 mg/kg i.v.): 10.6 mmHg
- Blood pressure in femoral artery, F: Lowering rate ([4]; 0.1 mg/kg i.v.): 11.6%
- Blood pressure in femoral artery, A: Before administration ([4]; 0.5 mg/kg i.v.): 87.5 mmHg
- Blood pressure in femoral artery, B: After administration ([4]; 0.5 mg/kg i.v.): 69.2 mmHg
- Blood pressure in femoral artery, E: Lowering degree ([4]; 0.5 mg/kg i.v.): 18.3 mmHg
- Blood pressure in femoral artery, F: Lowering rate ([4]; 0.5 mg/kg i.v.): 21.2%
- inhibition at 3 mg/kg ([5]; 3 mg/Kg oral (Table 5), read-out: Inhibitory rate of blood platelet aggregation): 39%
- inhibition at 10 mg/kg ([5]; 10 mg/Kg oral (Table 5), read-out: Inhibitory rate of blood platelet aggregation): 70.1%
- inhibition at 10 mg/kg ([5]; 10 mg/Kg oral, 1 hour after administration, collagen 7 to 10 μg/ml, read-out: Inhibitory rate (blood platelet aggregation)): 70.1%
- inhibition at 30 mg/kg ([5]; 30 mg/Kg oral (Table 5), read-out: Inhibitory rate of blood platelet aggregation): 85.5%
- inhibition at 100 mg/kg ([5]; 100 mg/Kg oral (Table 5), read-out: Inhibitory rate of blood platelet aggregation): 100%
- Survival time of dead mice ([6]; 10 mg/Kg oral): 127 ± 14 s
- Mortality ([6]; 10 mg/Kg oral): 86%
- Survival time of dead mice ([6]; 30 mg/Kg oral): 127.5 ± 14 s
- Mortality ([6]; 30 mg/Kg oral): 86%
- Mortality ([6]; 100 mg/Kg oral): 0%
- Mortality ([6]; 300 mg/Kg oral): 0%

From US4668677A, “4-phenylphthalazine derivatives, their preparation and their use as pharmaceuticals” (Mitsubishi Chemical Industries Limited, priority 1984, dated 1987)
